Reference: PubChem BioAssay (NCI)
“And” between values parts separate entries of the source, which are not always exact repeats. Identical values can stand only once.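 Five compound concentrations were applied to cells in 96-well plates for 48 hours; endpoints were derived by simple linear interpolation of the resulting dose-response curve. GI50 marks 50% less growth. At the TGI there is no net growth.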

Assays:
Assay in all cases: DTP human tumour cell line panel, 48 h
[1] = system: A498 renal
[2] = system: HT29 colon
[3] = system: IGROV1 ovarian
[4] = system: M14 melanoma
[5] = system: NCI-H23 lung
[6] = system: NCI-H460 lung
[7] = system: SK-MEL-2 melanoma
[8] = system: UACC-257 melanoma
[9] = system: UACC-62 melanoma
[10] = system: OVCAR-3 ovarian

| Structure (SMILES) | TGI [1] | TGI [2] [µM] | TGI [3] [µM] | TGI [4] [µM] | TGI [5] [µM] | TGI [6] [µM] | TGI [7] [µM] | TGI [8] [µM] | TGI [9] [µM] | TGI [10] [µM] | GI50 [1] [µM] | GI50 [2] [µM] | GI50 [3] | GI50 [4] [µM] | GI50 [5] [µM] | GI50 [6] [µM] | GI50 [10] [µM] | GI50 [7] [µM] | GI50 [8] [µM] | GI50 [9] [µM] |
| --- | --- | --- | --- | --- | --- | --- | --- | --- | --- | --- | --- | --- | --- | --- | --- | --- | --- | --- | --- | --- |
| N/N=C(\Cc1ccccc1)NN=C(N)N | > 100 µM | > 100 | > 100 | > 100 | > 100 | > 100 | > 100 | > 100 | > 100 | – | – | – | – | – | – | – | – | – | – | – |
| O=C(Nc1cc(Cl)c(Cl)cc1Cl)C(=O)C(C(=O)c1ccc(Cl)c(Cl)c1)C1OC(=O)c2ccccc21 (configuration not stated) | 41.9 µM | 39.3 | – | 27.7 | – | 10.8 | 28.6 | 27.5 | 33.5 | 32.6 | – | – | – | – | – | – | – | – | – | – |
| Cc1ccc2c(c1)ncn2-c1ncnc2c1CC(C)c1ccccc1N2C (configuration not stated) | 17 µM | 14.5 | 7.68 | 14.1 | 19.4 | 11.3 | 18.3 | – | – | 0.409 | 0.0567 | 0.0922 | 0.256 µM | 0.0587 | 0.428 | 0.225 | 0.0389 | 1.13 | – | – |
| Nc1nc(Nc2cccc(F)c2)nc2ccccc12 | 44.8 µM | 39.3 | > 100 | – | > 100 | 57.3 | 48.8 | 34.1 | 38.3 | 49.6 | 1.4 | 21.4 | 38.7 µM | – | 24.1 | 20.1 | 21.1 | 25.3 | 17.4 | 17.8 |
| Cc1cccc(C)c1NC(=O)CCCC(=O)C1CCC/C1=N\NC(=O)C(=O)NN (configuration not stated) | > 100 µM | > 100 | – | > 100 | > 100 | > 100 | > 100 | > 100 | – | > 100 | – | – | – | – | – | – | – | – | – | – |
| Clc1ccc2nc(Oc3ccccc3)cnc2c1 | > 100 µM | > 100 | – | > 100 | > 100 | > 100 | – | > 100 | > 100 | > 100 | 8.84 | > 100 | – | > 100 | > 100 | > 100 | > 100 | – | > 100 | > 100 |
| Fc1ccc(Nc2nccc(-c3c(-c4ccc(C(F)(F)F)cc4)nn4ncccc34)n2)cc1F | > 25 µM | > 25 | > 25 | > 25 | > 25 | > 25 | – | > 25 | > 25 | > 25 | > 25 | > 25 | > 25 µM | > 25 | > 25 | > 25 | > 25 | – | > 25 | > 25 |
| CCC1CN2CCc3cc(OC)c(OC)cc3C2CC1CC1c2cc(OC)c(OC)cc2CCN1C(=O)CNC(=O)OC(C)(C)C (configuration not stated) | 56.2 µM | > 100 | 74.6 | – | 56.1 | 46.4 | 33.1 | 60 | 56.4 | 61.7 | – | – | – | – | – | – | – | – | – | – |
| Cc1c2ccncc2c(C)c2c1[nH]c1ccc(OC(C)(C)C)cc12 | 26.2 µM | 7.09 | 26.8 | 14.9 | 24.9 | – | 3.88 | 4.01 | 5.43 | 3.42 | – | – | – | – | – | – | – | – | – | – |
| S=c1ssc(Sc2ccccn2)c1Cl | – | > 100 | – | 27 | 62.9 | 28.5 | > 100 | 57.9 | 28.6 | 25.9 | – | 3.43 | – | 14 | 17.2 | 15.2 | 13.2 | 34.6 | 22.2 | 15.3 |
| O=C1c2ccccc2C(=O)C1C(c1ccc([N+](=O)[O-])cc1)C1C(=O)c2ccccc2C1=O | – | > 100 | – | > 100 | > 100 | > 100 | > 100 | > 100 | > 100 | 34.1 | – | – | – | – | – | – | – | – | – | – |
| FC(F)(F)c1ccc2nc(Nc3ccc(Cl)c(Cl)c3)c(-c3ccccc3)nc2c1 | – | > 100 | – | – | > 100 | > 100 | > 100 | > 100 | – | > 100 | – | – | – | – | – | – | – | – | – | – |
| CCc1c2c(nc3cccc(N)c13)-c1cc3c(c(=O)n1C2)COC(=O)[C@]3(O)CC | 0.487 µM and 0.0609 µM | 0.655 | 20.8 | 2.97 | – | – | – | – | – | – | 0.0569 | – | 0.137 µM and 0.0298 µM | 0.00202 | 0.00327 | 0.002 | 0.237 | – | – | < 0.001 |
| COc1ccc2c(C(=O)O)cc3cc(OC)c(OC)cc3c2c1 | – | > 100 | > 100 | > 100 | > 100 | > 100 | > 100 | > 100 | > 100 | > 100 | – | – | – | – | – | – | – | – | – | – |
| COc1cc(Oc2c(O)c(C)c(OC)c(C(C)=O)c2O)c(C(C)=O)c(O)c1C | – | > 100 | > 100 | > 100 | 94.9 | > 100 | – | > 100 | > 100 | > 100 | – | – | – | – | – | – | – | – | – | – |
| CC(=O)Oc1ccccc1C(=O)C1c2cccc(O)c2C(=O)c2c(O)cccc21 | 7.1 µM | 6.59 | 2.85 | 5.16 | 4.33 | 2.1 | 2.9 | 3.76 | 2.23 | – | – | – | – | – | – | – | – | – | – | – |
| COc1ccc(COCC(Cn2ccnc2)OCc2ccc(C(=O)O)cc2)cc1 (configuration not stated) | > 100 µM | > 100 | > 100 | > 100 | > 100 | > 100 | > 100 | > 100 | > 100 | – | – | – | – | – | – | – | – | – | – | – |
| CCOC(=O)c1cnn(-c2ccnc3c(C(F)(F)F)cccc23)c1N | > 100 µM | > 100 | > 100 | – | > 100 | > 100 | > 100 | > 100 | > 100 | > 100 | > 100 | > 100 | > 100 µM | – | > 100 | > 100 | > 100 | > 100 | > 100 | > 100 |
| CN(C)CCNC(=O)c1ccc(Cl)c2c(Nc3ccc(S(N)(=O)=O)cc3)c3ccccc3nc12 | 13.4 µM | 6.41 | 16.5 | 10.7 | 11.6 | 7.28 | 4 | 12.7 | 3.05 | – | – | – | – | – | – | – | – | – | – | – |
| FC(F)(F)C12C34C=CC5(CCC6(C=CC1(CC3)O6)C52C(F)(F)F)O4 (configuration not stated) | > 100 µM | > 100 | > 100 | – | > 100 | > 100 | > 100 | > 100 | – | > 100 | – | – | – | – | – | – | – | – | – | – |
